Paper PMC6553790 (PLoS Pathogens, 2019)

Assays:
Plasmodium parasites = conditions: cited from earlier work
[1] = test system: P. falciparum Cam3.II lines; assay: Stage-specificity 1 hr pulse survival assay; assay type: cell-based, Plasmodium falciparum; conditions: 150 nM
Procedure: All stage-specificity tests were concluded 72 hr from the start of the experiment. Assays were performed in duplicate. Parasites were prepared by synchronizing ring stages with 5% D-Sorbitol and later isolating the schizonts over a 75% Percoll gradient. These schizonts were allowed to reinvade fresh RBCs at 2% hematocrit. Parasites were tested as purified schizonts, early rings, mid rings, late rings or trophozoites (~45–47, 0–3, 10–13, 18–21 and 24–27 hr post-invasion, respectively), and exposed to drug or DMSO vehicle control in 1 mL volumes. Parasites were seeded at 0.5% parasitemia and 1% hematocrit in a 48-well plate.
Drug-treated parasites were washed as previously described for the RSA0-3h. Briefly, 1 mL cultures were transferred to 15 mL conical tubes, centrifuged at 800×g for 5 minutes to pellet cells, and the culture medium containing drug was carefully removed. Cells were subsequently resuspended in 10 mL drug-free medium, centrifuged, and the wash medium removed. Finally, cells were resuspended in 1 mL of fresh drug-free medium, transferred to a new well, and returned to standard culture conditions for the duration of the assay. Parasitemias were measured by flow cytometry and the survival of drug-treated parasites was calculated as a percent of DMSO-treated control cultures.

[2] = test system: P. falciparum Cam3.II lines; assay: Isobologram analyses (fixed-ratio drug combinations); assay type: cell-based, Plasmodium falciparum
Procedure: Assays were performed with fixed ratios of drug combinations (1:0, 4:1, 2:1, 1:1, 1:2, 1:4, and 0:1), tested in duplicate. Combinations were prepared from 16×IC50 drug stocks and tested across a range of two-fold dilutions. Assays were conducted with asynchronous cultures exposed for 72 hr or with tightly synchronized rings or trophozoites (tested at 0–3 hr or 24–27 hr post-invasion, respectively) exposed for 3 hr. Post-pulse drug washouts were conducted as described above for in vitro determination of IC50 levels. IC50 values were derived for each compound tested alone, and fractional IC50 (FIC50) values were determined for each compound tested in combination (FIC50 = […]) and plotted for each drug combination. For each combination, the mean of the sums of FIC50 values at each combination (mean ΣFIC50) was also calculated and the results illustrated using heat maps.

## CC(C)(C)NC(=O)C[C@H](NC(=O)CCc1ccccc1)C(=O)NCCNC(=O)c1cccc(-c2ccccc2)c1 [PKS21004]
Plasmodium parasites
  Resistance of selected parasites, fold increase over the sensitive parent: > 130 fold

## C[C@H]1[C@@H](O)O[C@@H]2O[C@@]3(C)CC[C@H]4[C@H](C)CC[C@@H]1[C@@]24OO3 [DHA, dihydroartemisinin]
[1]; Early rings (0–3 hpi), Cam3.II K13C580Y
  Mean percent survival: 57.9 ± 5.6%
[1]; Early rings (0–3 hpi), Cam3.II K13WT
  Mean percent survival: 46.8 ± 10.6%
[1]; Late rings (18–21 hpi), Cam3.II K13C580Y
  Mean percent survival: 13.5 ± 3.1%
[1]; Late rings (18–21 hpi), Cam3.II K13WT
  Mean percent survival: 18.9 ± 5.6%
[1]; Mid rings (10–13 hpi), Cam3.II K13C580Y
  Mean percent survival: 29.1 ± 3.4%
[1]; Mid rings (10–13 hpi), Cam3.II K13WT
  Mean percent survival: 35.4 ± 2.7%
[1]; Schizonts (45–48 hpi), Cam3.II K13C580Y
  Mean percent survival: 71.9 ± 13.6%
[1]; Schizonts (45–48 hpi), Cam3.II K13WT
  Mean percent survival: 59.0 ± 5.3%
[1]; Trophs (24–27 hpi), Cam3.II K13C580Y
  Mean percent survival: 4.1 ± 0.6%
[1]; Trophs (24–27 hpi), Cam3.II K13WT
  Mean percent survival: 2.3 ± 0.1%
[2]; asynchronous parasites, early rings and trophozoites, Cam3.II K13WT and K13C580Y
  Interaction with WLW (isobologram): synergy
[2]; combined with WLL, Asynchronous, 72 hr, Cam3.II K13WT
  Mean of the sums of FIC50 (mean ΣFIC50): 0.89
[2]; combined with WLL, Rings, 3 hr exposure, Cam3.II K13C580Y
  Mean of the sums of FIC50 (mean ΣFIC50): 0.77
[2]; combined with WLL, Rings, 3 hr exposure, Cam3.II K13WT
  Mean of the sums of FIC50 (mean ΣFIC50): 0.69
[2]; combined with WLL, Trophozoites, 3 hr exposure, Cam3.II K13C580Y
  Mean of the sums of FIC50 (mean ΣFIC50): 0.68
[2]; combined with WLL, Trophozoites, 3 hr exposure, Cam3.II K13WT
  Mean of the sums of FIC50 (mean ΣFIC50): 0.70
[2]; combined with WLW, Asynchronous, 72 hr, Cam3.II K13C580Y
  Mean of the sums of FIC50 (mean ΣFIC50): 0.71
[2]; combined with WLW, Asynchronous, 72 hr, Cam3.II K13WT
  Mean of the sums of FIC50 (mean ΣFIC50): 0.66
[2]; combined with WLW, Rings, 3 hr exposure, Cam3.II K13C580Y
  Mean of the sums of FIC50 (mean ΣFIC50): 0.44
[2]; combined with WLW, Rings, 3 hr exposure, Cam3.II K13WT
  Mean of the sums of FIC50 (mean ΣFIC50): 0.43
[2]; combined with WLW, Trophozoites, 3 hr exposure, Cam3.II K13C580Y
  Mean of the sums of FIC50 (mean ΣFIC50): 0.73
[2]; combined with WLW, Trophozoites, 3 hr exposure, Cam3.II K13WT
  Mean of the sums of FIC50 (mean ΣFIC50): 0.69
[2]; early rings and trophozoites
  Interaction with WLL (isobologram): Synergy
